Assay [1] addresses T1, human cloned CHRM5 receptor (M5_CHO) (Homo sapiens, UniProt P08912).
T1 construct: expressed in transfected cells; host or cells: CHO (M5_CHO)
T1 sequence (P08912 1-532): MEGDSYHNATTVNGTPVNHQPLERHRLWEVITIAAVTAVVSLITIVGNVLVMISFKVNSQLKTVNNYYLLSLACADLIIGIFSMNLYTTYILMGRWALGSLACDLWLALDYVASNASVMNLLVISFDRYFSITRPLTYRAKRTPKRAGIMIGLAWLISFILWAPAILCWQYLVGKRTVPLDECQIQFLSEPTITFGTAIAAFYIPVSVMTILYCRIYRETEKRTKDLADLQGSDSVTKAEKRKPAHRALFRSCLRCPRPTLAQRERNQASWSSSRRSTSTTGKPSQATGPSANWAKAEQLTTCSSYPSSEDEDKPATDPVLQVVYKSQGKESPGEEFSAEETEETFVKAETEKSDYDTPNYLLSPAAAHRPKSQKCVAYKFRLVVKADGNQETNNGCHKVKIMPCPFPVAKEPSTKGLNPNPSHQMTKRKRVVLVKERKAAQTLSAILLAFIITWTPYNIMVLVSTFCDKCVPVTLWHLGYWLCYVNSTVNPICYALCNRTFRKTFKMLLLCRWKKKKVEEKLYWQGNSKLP
The assay is described as follows: CHRM5 Ca++ Flux Assay (agonist mode, FDSS 7000EX). It counts as cell-based. Particulars: for M5 FDSS PA: Percent Activity measured to EC100 of Carbachol; for EC50: agonist mode, geometric mean if tested more than once, read-out: M5 FDSS EC50. How it is done: (§1) The above examples were characterized by measuring the intracellular mobilization of Ca++ ions caused by signaling events mediated by the receptor. The Intra-cellular Calcium flux levels were captured by the highly sensitive Ca++ indicator, Calcium Assay Kit (BD Biosciences, Catalog Number 640178). The fluorescent activity from all receptors were monitored by the fluorescent imager, FDSS 7000EX (Hamamatsu) over a span of 3 minutes.
CHO-K1 cells stably expressing the human cloned CHRM3 receptor (M3_CHO cells) were grown and maintained in a monolayer culture with F12/HAM (Life Technologies) supplemented with 10% Fetal Bovine Serum, 1× Pen-Strep, and 0.4 mg/mL Geneticin in a humidified atmosphere (5% CO2) at 37° C. The cultures were grown to 80-9 0% confluency in T150 flasks (Corning) and washed with 1×DPBS and lifted with 0.05% Trypsin (Life Technologies). The cells were then spun (1K rpm, 3 minutes) and frozen using Recovery Cell Culture Freezing Media (Gibco Technologies). Cells were stored in liquid nitrogen and thawed a day before the assay. A similar procedure was used for cells stably expressing the human cloned CHRM5 receptor (M5_CHO).
Prior to the day of the assay, stable M3_CHO or M5_CHO cells were thawed and plated on Greiner 384 well black TC treated plates at 12K cells/well in F12/DMEM supplemented with 10% FBS (Hyclone) and kept overnight in a humidified atmosphere (5% CO2) at 37° C. The next day, cells were loaded with Ca^++ dye (BD Biosciences) using Loading Buffer (HBSS +Ca/+Mg, 20 mM HEPES, 2.5 mM Probenecid) and placed back in cell incubator for a minimum of 1 hour. After incubation, the dye was replaced with Assay Buffer (HBSS −Ca/−Mg, 20 mM HEPES, 2.5 mM Probenecid) and kept at room temperature in the dark before running on cell imager. The FDSS 7000EX (Hamamatsu) was used to acquire Ca^++ traces from cells treated with 11 point dose response of compounds in triplicate in order to generate dose response curves in agonist mode. All compounds were serially diluted in DMSO then prepared in Assay Buffer for Ca^++ flux studies. The dose response curves were generated from the average of triplicate wells obtained from each data point and used a non-linear regression of four parameter dose response algorithm. The Percent Activity (PA) was measured to EC100 of Carbachol.

Assay [2] has as its target T2, human cloned CHRM4 receptor (M4_CHO cells) (Homo sapiens, UniProt P08173).
T2 construct: expressed in transfected cells; host or cells: CHO-K1
T2 sequence (P08173 1-479): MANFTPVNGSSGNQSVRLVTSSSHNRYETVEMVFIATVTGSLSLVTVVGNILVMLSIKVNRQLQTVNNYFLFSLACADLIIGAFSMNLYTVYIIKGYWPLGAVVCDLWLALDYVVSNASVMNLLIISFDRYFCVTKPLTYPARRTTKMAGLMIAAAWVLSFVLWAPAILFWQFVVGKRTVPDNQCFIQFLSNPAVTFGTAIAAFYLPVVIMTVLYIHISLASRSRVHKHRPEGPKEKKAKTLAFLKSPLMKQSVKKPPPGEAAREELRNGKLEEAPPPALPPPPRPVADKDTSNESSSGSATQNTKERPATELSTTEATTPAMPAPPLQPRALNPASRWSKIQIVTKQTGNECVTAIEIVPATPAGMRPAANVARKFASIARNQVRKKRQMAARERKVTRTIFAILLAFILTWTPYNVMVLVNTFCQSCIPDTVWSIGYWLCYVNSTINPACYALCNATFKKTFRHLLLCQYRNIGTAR
The assay is described as follows: CHRM4 Ca++ Flux Assay (agonist mode, FDSS 7000EX). Particulars: for M4 FDSS PA: Percent Activity; for EC50: geometric mean if tested more than once, read-out: M4 FDSS EC50. It counts as cell-based. As to the method:
as §1
CHO-K1 cells stably expressing the human cloned CHRM4 receptor (M4_CHO cells) were grown and maintained in a monolayer culture with F12/HAM (Life Technologies) supplemented with 10% Fetal Bovine Serum, 1× Pen-Strep, and 0.4 mg/mL Geneticin in a humidified atmosphere (5% CO2) at 37° C. The cultures were grown to 80-90% confluency in T150 flasks (Corning) and washed with 1×DPBS then lifted with 0.05% Trypsin (Life Technologies). The cells were harvested in growth media then spun (1K rpm, 3 minutes) and cryopreserved using Recovery Cell Culture Freezing Media (Gibco Technologies). Cells were stored in liquid nitrogen and thawed a day before the assay.
Prior to the day of the assay, stable M4_CHO cells were thawed and plated on 384 well black walled clear bottom TC treated plates (Greiner Cat #781091) at 12K cells/well using F12/HAM Media supplemented with 10% FBS (Life Technologies) and kept overnight in a humidified atmosphere (5% CO2) at 37° C. The next day, cells were loaded with […] Ca^++ dye (BD Biosciences) using Loading Buffer (HBSS +Ca/+Mg, 20 mM HEPES, 2.5 mM Probenecid) and placed back in cell incubator for a minimum of 1 hour. After incubation, the dye was replaced with 45 μL Assay Buffer (HBSS −Ca/−Mg, 20 mM HEPES, 2.5 mM Probenecid) supplemented with 20 μM ATP (Sigma Aldrich) and kept at room temperature in the dark for 60 minutes before running on a cell imager. The FDSS 7000EX (Hamamatsu) was used to capture Ca^++ traces for a span of 3 minutes from cells treated with 11 point dose of compound in triplicate in order to generate dose response curves in agonist mode. All compounds were serially diluted in DMSO then prepared in Assay Buffer for Ca^++ flux studies. The dose response curves were generated from the average of triplicate wells obtained from each data point and used a non-linear regression of four parameter dose response algorithm. The Percent Activity (PA) was measured to EC100 of Carbachol.

SMILES strings stand for the structures. Some results are limits rather than exact numbers.

A word on the EC50: it is the concentration giving half of the maximal effect. Regarding `O[C@H]1CC[C@@H](c2ccccc2C2CCN([C@@H]3CCC4(C3)CN(c3nnco3)C4)CC2)CC1` (single isomer, unassigned) [Example 2N, (1S,4s)-4-(2-(1-((R)-2-(1,3,4-oxadiazol-2-yl)-2-azaspiro[3.4]octan-6-yl)piperidin-4-yl)phenyl)cyclohexan-1-ol or (1R,4r)-4-(2-(1-((R)-2-(1,3,4-oxadiazol-2-yl)-2-azaspiro[3.4]octan-6-yl)piperidin-4-yl)phenyl)cyclohexan-1-ol], in assay [1], the “M5 FDSS PA” value came to 0% and the EC50 is greater than 25000 nM. In addition, in assay [2], the “M4 FDSS PA” value is given as 81% and the EC50 worked out at 1 nM.
For `OC1CCC(c2ccccc2C2CCN([C@@H]3CCC4(C3)CN(c3nnco3)C4)CC2)CC1` (single isomer, unassigned) [Example 2O, (1s,4r)-4-(2-(1-((R)-2-(1,3,4-oxadiazol-2-yl)-2-azaspiro[3.4]octan-6-yl)piperidin-4-yl)phenyl)cyclohexan-1-ol or (1r,4r)-4-(2-(1-((R)-2-(1,3,4-oxadiazol-2-yl)-2-azaspiro[3.4]octan-6-yl)piperidin-4-yl)phenyl)cyclohexan-1-ol] the same measures were 0%, greater than 25000 nM, 89% and less than 0.4 nM.
For `O=C(N1CC2(CC[C@@H](N3CCC(c4ccccc4OCCC(F)(F)F)CC3)C2)C1)C1(F)CC1` (single isomer, unassigned) [Example 7AA, (R)-(1-fluorocyclopropyl)(6-(4-(2-(3,3,3-trifluoropropoxy)phenyl)piperidin-1-yl)-2-azaspiro[3.4]octan-2-yl)methanone or (S)-(1-fluorocyclopropyl)(6-(4-(2-(3,3,3-trifluoropropoxy)phenyl)piperidin-1-yl)-2-azaspiro[3.4]octan-2-yl)methanone] the same measures were 0%, greater than 25000 nM, 54% and 11 nM.
For `CC(C)(O)CCOc1ccccc1C1CCN([C@@H]2CCC3(C2)CN(C(=O)C2(F)CC2)C3)CC1` (single isomer, unassigned) [Example 7BB, (R)-(1-fluorocyclopropyl)(6-(4-(2-(3-hydroxy-3-methylbutoxy)phenyl)piperidin-1-yl)-2-azaspiro[3.4]octan-2-yl)methanone or (S)-(1-fluorocyclopropyl)(6-(4-(2-(3-hydroxy-3-methylbutoxy)phenyl)piperidin-1-yl)-2-azaspiro[3.4]octan-2-yl)methanone] the same measures were 0%, greater than 25000 nM, 38% and 2 nM.
For the compound `COC(C)(C)CCOc1ccccc1C1CCN([C@@H]2CCC3(C2)CN(C(=O)C2(F)CC2)C3)CC1` (single isomer, unassigned) [Example 7FF, (R)-(1-fluorocyclopropyl)(6-(4-(2-(3-methoxy-3-methylbutoxy)phenyl)piperidin-1-yl)-2-azaspiro[3.4]octan-2-yl)methanone or (S)-(1-fluorocyclopropyl)(6-(4-(2-(3-methoxy-3-methylbutoxy)phenyl)piperidin-1-yl)-2-azaspiro[3.4]octan-2-yl)methanone], in assay [1], the “M5 FDSS PA” value is on record as 0% and the EC50 was greater than 25000 nM. Also, in assay [2], the “M4 FDSS PA” value was determined as 38% and the EC50 stood at 5 nM.
Consider `O=C(N1CC2(CC[C@@H](N3CCC(c4ccccc4OCc4ncccn4)CC3)C2)C1)C1(F)CC1` (single isomer, unassigned) [Example 7M, (R)-(1-fluorocyclopropyl)(6-(4-(2-(pyrimidin-2-ylmethoxy)phenyl)piperidin-1-yl)-2-azaspiro[3.4]octan-2-yl)methanone or (S)-(1-fluorocyclopropyl)(6-(4-(2-(pyrimidin-2-ylmethoxy)phenyl)piperidin-1-yl)-2-azaspiro[3.4]octan-2-yl)methanone], for which, in assay [1], the “M5 FDSS PA” value was determined as 0% and the concentration giving a half-maximal response (EC50) is greater than 25000 nM. Moreover, in assay [2], the “M4 FDSS PA” value is listed as 50% and the EC50 amounted to 1 nM.
For `O=C(N1CC2(CC[C@@H](N3CCC(c4ccccc4OCCO)CC3)C2)C1)C1(F)CC1` (single isomer, unassigned) [Example 7N, (R)-(1-fluorocyclopropyl)(6-(4-(2-(2-hydroxyethoxy)phenyl)piperidin-1-yl)-2-azaspiro[3.4]octan-2-yl)methanone or (S)-(1-fluorocyclopropyl)(6-(4-(2-(2-hydroxyethoxy)phenyl)piperidin-1-yl)-2-azaspiro[3.4]octan-2-yl)methanone] the same measures were 0%, greater than 25000 nM, 68% and 1 nM.
Turning to `O=C(N1CC2(CC[C@@H](N3CCC(c4ccccc4OCC4CC4)CC3)C2)C1)C1(F)CC1` (single isomer, unassigned) [Example 7O, (R)-(6-(4-(2-(cyclopropylmethoxy)phenyl)piperidin-1-yl)-2-azaspiro[3.4]octan-2-yl)(1-fluorocyclopropyl)methanone or (R)-(6-(4-(2-(cyclopropylmethoxy)phenyl)piperidin-1-yl)-2-azaspiro[3.4]octan-2-yl)(1-fluorocyclopropyl)methanone], in assay [1], the “M5 FDSS PA” value was 0% and the EC50 is greater than 25000 nM. Moreover, in assay [2], the “M4 FDSS PA” value turned out to be 42% and the EC50 is 9 nM.

(Values after patent US12122761B2, “2-azaspiro[3.4]octane derivatives as M4 agonists” (NOVARTIS AG, priority 2019, dated 2024).)
